Measured values taken from patent US7572770B2, “Use of an interleukin 1 receptor antagonist and/or pyrrolidinedithiocarbamate for the treatment or prophylaxis of type 2 diabetes” (University of Zurich, priority 2002, dated 2009).

What was measured:
human islets β-cells = assay: β-cell apoptosis (TUNEL) and necrosis (propidium iodide) in human islets; assay type: cell-based; details: 4 days
Method: Islet isolation and culture. Islets were isolated from pancreases of eleven organ donors at the Department of Surgery, University of Geneva Medical Center, as described (32-34). The islet purity was >95%, as judged by dithizone staining (if this degree of purity was not primarily achieved by routine isolation, islets were handpicked). […] For long-term in vitro studies, the islets were cultured on extracellular matrix-coated plates derived from bovine corneal endothelial cells (Novamed Ltd., Jerusalem, Israel), allowing the cells to attach to the dishes and spread, preserving their functional integrity (7;35). Islets were cultured in CMRL 1066 medium containing 100 U/ml penicillin, 100 μg/ml streptomycin and 10% fetal calf serum (Gibco, Gaithersburg, Md.), hereinafter referred to as culture medium. Two days after plating, when most islets were attached and began to flatten, the medium was changed to culture medium containing 5.5, 11.1 or 33.3 mM glucose. In some experiments, islets were additionally cultured with 2 ng/ml recombinant human IL-1β, 1000 U/ml recombinant human IFNγ (ReproTech EC Ltd, London, UK), 500 ng/ml IL-1β receptor antagonist (IL-1Ra) (R&D Systems Inc., Minneapolis, Minn.), 1 ng/ml membrane bound Fas-ligand (FasL) (36) (upstate biotechnology, Lake Placid, N.Y.) or with 100 μM pyrrolidinedithiocarbamate (PDTC; Sigma; 2 h per 2 d of culture).
β-cell apoptosis. The free 3-OH strand breaks resulting from DNA degradation were detected by the terminal deoxynucleotidyl transferase-mediated dUTP nick-end labeling (TUNEL) technique (38). After washing with PBS, cultured islets were fixed in 4% paraformaldehyde (30 min, room temperature) followed by permeabilisation with 0.5% triton X-100 (4 min, room temperature). The TUNEL assay was performed according to the manufacturer's instructions (In Situ Cell Death Detection Kit, AP; Boehringer Mannheim, Germany). […] The samples were immediately evaluated by fluorescence microscopy for positively stained […] nuclei.

IL-1Ra = IL-1Ra release and mRNA in human blood monocytes; assay type: cell-based; details: leptin, 15 and 48 hours
Method: Human blood monocytes were isolated as described previously (37), cultured in RPMI 1640 (Invitrogen) containing 100 U/ml penicillin, 100 μg/ml streptomycin and 10% fetal calf serum and exposed to 10 or 500 nM leptin.
RNA extraction and RT-PCR. Islets were cultured in a suspension as described above. Total RNA was extracted using Rneasy mini kit (Qiagen, Basel, Switzerland) and RT-PCR was performed using the Superscript™ II Rnase H-Reverse transcriptase kIT and oligo (dT) (7) (Life technologies, Gaithersburg, Md., USA) according to the instructions from the manufacturers. The following primers were used: 5′[…]3′(SEQ ID. NO. 1)/5′[…]3′ (human IL-1Ra) (SEQ ID.NO. 2) and 5′[…]3′(SEQ ID. NO. 3)/5′[…]3′ (human IL-1β) (SEQ ID. NO. 4). PCR conditions were: denaturation for 30 seconds at 94° C., annealing for 30 seconds at 60° C., and elongation for 30 seconds at 72° C., followed for real time PCR by quantification for 5 seconds at 82° C.; repetition for 40 cycles. Saturation of PCR product occurred between 19 and 33 cycles. […] For quantitative analysis, we used the LightCycler quantitative PCR system (Roche) and performed quantitative PCR with a commercial kit (LightCycler-DNA Master SYBR Green I; Roche). […]
Cytokine release. Cytokine release was evaluated in the culture medium collected before the termination of each experiment using human IL-1β and IL-1Ra ELISA kits (R&D Systems Inc.).

| Substance | baseline apoptosis (TUNEL-positive β-cells) (human islets β-cells; 5.5 mM glucose) | glucose-induced β-cell apoptosis / DNA fragmentation (TUNEL) (human islets β-cells; 33.3 mM glucose, with IL-1Ra 500 ng/ml or PDTC 100 μM) | IL-1Ra release and mRNA in peripheral blood monocytes (IL-1Ra) |
| --- | --- | --- | --- |
| Interleukin 1 receptor antagonist [IL-1Ra] | did not significantly change baseline apoptosis | protected the β-cells from apoptosis | – |
| leptin: rh leptin (PeproTech); protein encoded by the ob gene | – | – | A similar dual effect |
